According to BindingDB's records for PubMed 9223568 (Yamanouchi Pharmaceutical, 1997):
pKi: −log10 of the molar value. Values joined by “and” are separate entries in the source; they are usually repeats but may differ in a detail not shown here. Equal entries are not always repeated. Numbered stars: 1 amine (or outer) side, 2 acyl side, 3 side chain; on linkers, the order of the positions; unused ones are H or OH. Bridge positions count the residues as written; N and C are the ends. Peptide text beside a SMILES is read from it. X1 = O=C(CC1(S[*:2])CCCCC1)[*:1]

What was measured:
Oxytocin receptor = molecular target: T1, Oxytocin receptor (Rattus norvegicus, UniProt P70536)
T1 sequence (P70536 whole entry): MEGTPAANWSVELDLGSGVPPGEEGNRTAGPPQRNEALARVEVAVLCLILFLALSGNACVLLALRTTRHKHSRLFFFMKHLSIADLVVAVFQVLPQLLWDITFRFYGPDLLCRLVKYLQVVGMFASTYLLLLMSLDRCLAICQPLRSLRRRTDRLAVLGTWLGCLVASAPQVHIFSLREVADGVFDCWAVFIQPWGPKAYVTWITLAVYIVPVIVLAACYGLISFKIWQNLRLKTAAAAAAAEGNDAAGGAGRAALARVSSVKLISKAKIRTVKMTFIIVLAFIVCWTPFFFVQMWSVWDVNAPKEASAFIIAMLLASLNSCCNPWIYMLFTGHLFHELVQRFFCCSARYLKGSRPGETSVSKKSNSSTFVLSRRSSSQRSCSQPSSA

Vasopressin V1a receptor = Vasopressin V1a receptor (Rattus norvegicus, UniProt P30560)
Vasopressin V1a receptor, sequence (P30560 whole entry): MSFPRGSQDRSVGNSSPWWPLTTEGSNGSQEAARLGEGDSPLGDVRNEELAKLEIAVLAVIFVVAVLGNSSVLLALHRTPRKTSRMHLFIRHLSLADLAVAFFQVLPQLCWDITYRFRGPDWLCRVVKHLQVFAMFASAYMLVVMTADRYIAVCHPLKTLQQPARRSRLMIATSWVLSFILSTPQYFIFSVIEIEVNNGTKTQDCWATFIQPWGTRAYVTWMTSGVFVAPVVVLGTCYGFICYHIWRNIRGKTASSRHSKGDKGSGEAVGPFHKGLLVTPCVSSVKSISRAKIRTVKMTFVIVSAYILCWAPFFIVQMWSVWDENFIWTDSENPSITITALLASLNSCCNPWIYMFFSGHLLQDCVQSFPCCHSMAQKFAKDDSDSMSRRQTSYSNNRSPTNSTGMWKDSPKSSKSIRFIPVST

Vasopressin V1b receptor = molecular target: T2, Vasopressin V1b receptor (Rattus norvegicus, UniProt P48974)
T2 sequence (P48974 whole entry): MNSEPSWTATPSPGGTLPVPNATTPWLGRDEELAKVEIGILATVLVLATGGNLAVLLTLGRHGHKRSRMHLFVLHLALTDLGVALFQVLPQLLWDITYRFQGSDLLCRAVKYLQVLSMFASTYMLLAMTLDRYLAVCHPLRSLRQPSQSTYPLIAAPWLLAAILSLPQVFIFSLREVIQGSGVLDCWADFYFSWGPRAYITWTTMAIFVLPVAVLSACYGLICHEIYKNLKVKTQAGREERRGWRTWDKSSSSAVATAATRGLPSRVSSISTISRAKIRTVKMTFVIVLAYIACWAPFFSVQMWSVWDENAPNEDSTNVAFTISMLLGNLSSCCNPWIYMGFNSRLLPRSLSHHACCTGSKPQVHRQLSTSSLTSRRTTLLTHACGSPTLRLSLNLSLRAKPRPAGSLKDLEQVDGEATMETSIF

Vasopressin V2 receptor = Vasopressin V2 receptor (Rattus norvegicus, UniProt Q00788)
Vasopressin V2 receptor, sequence (Q00788 whole entry): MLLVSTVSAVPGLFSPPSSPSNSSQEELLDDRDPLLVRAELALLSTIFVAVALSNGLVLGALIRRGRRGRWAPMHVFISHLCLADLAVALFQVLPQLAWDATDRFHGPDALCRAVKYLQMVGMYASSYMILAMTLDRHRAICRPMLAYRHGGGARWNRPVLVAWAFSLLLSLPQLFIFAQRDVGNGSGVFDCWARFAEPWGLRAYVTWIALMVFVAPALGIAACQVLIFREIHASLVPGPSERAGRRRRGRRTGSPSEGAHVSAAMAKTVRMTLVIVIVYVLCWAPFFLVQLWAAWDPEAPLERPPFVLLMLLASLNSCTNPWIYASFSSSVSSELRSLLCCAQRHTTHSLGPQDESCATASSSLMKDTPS

| Compound | pKi (Oxytocin receptor) | pKi (Vasopressin V1a receptor) | pKi (Vasopressin V1b receptor) | pKi (Vasopressin V2 receptor) |
| --- | --- | --- | --- | --- |
| Cc1ccccc1C(=O)Nc1ccc(C(=O)N2CCCC(N(C)C)c3ccccc32)cc1 (stereo not given) | 5.81 | 6.63 | < 5.00 | – |
| Cc1nc2c([nH]1)-c1ccccc1N(C(=O)c1ccc(NC(=O)c3ccccc3-c3ccccc3)cc1)CC2 [CONIVAPTAN] | 7.35 | 9.32 and 9.62 | < 5.00 | 8.52 and 9.42 |
| CC(=O)NCCCOc1ccc(C(=O)N2CCC(N3C(=O)CCc4ccccc43)CC2)cc1 [N-(3-(4-(4-(2-oxo-3,4-dihydroquinolin-1(2H)-yl)piperidine-1-carbonyl)phenoxy)propyl)acetamide] | 6.48 | 7.63 and 7.83 | < 5.00 | < 5.00 |
| NC(=O)CC[C@@H]1NC(=O)[C@H](Cc2ccccc2)NC(=O)[C@H](Cc2ccc(O)cc2)NC(=O)CCSSC[C@@H](C(=O)N2CCC[C@H]2C(=O)N[C@H](CCCN=C(N)N)C(=O)NCC(N)=O)NC(=O)[C@H](CC(N)=O)NC1=O [NSC_64759] | – | – | – | 8.71 and 8.10 |
| COc1ccc(C[C@@H]2NC(=O)CC3(CCCCC3)SSC[C@@H](C(=O)N3CCC[C@H]3C(=O)N[C@@H](CCCN=C(N)N)C(=O)NCC(N)=O)NC(=O)[C@H](CC(N)=O)NC(=O)[C@H](CCC(N)=O)NC(=O)[C@H](Cc3ccccc3)NC2=O)cc1 [NSC_105077] (Y(Me)FQNCPRG-NH2; linker N-5 via X1) | – | 8.75 and 9.48 | 7.42 | 7.40 and 7.00 |
